# In US8394792B2, “Heterocyclic derivatives” (C&C Research Laboratories, priority 2008, dated 2013):
# Counter-ions that a name gives are not always drawn. Like-named read-outs stand apart in the source and are kept apart here.
# Legend:
# hURAT1 = molecular target: T1, hURAT1 (Homo sapiens, UniProt Q96S37); assay: Test for inhibiting urate reuptake activity via hURAT1 (uric acid transport assay in hURAT1-overexpressed HEK293 cell line); assay type: cell-based; conditions: hURAT1-overexpressed HEK293 cells, [14C]-uric acid uptake, 100 μM uric acid; read-out: IC50 (μM) hURAT, level of uric acid reuptake inhibition
# T1 construct: expressed in transfected cells; host or cells: HEK293 (human kidney cell line), transient transfection with Fugene6
# T1 sequence (Q96S37 1-553): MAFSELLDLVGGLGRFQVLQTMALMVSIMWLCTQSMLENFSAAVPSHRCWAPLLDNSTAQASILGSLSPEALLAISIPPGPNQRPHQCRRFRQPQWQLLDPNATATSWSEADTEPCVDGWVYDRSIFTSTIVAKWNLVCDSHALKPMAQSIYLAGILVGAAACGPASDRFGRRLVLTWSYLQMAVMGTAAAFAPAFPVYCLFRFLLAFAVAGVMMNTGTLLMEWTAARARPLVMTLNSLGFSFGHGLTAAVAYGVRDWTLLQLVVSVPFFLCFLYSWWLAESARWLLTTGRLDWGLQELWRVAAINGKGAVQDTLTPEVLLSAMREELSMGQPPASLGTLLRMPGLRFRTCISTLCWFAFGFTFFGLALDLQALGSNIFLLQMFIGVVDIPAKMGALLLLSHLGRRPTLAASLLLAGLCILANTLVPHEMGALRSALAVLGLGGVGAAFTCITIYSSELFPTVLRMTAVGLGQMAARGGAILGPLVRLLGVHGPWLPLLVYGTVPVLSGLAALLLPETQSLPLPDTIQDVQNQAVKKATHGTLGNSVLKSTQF
# Method: Test for Inhibiting Urate Reuptake Activity Via hURAT1
# [hURAT1 Overexpression by Transient Transfection in Human Kidney Cell Line]
# A human kidney cell line, HEK293 was incubated by using OptiMEM medium in 100 mm dish at (3*10^6 cells) for 24 hours. In order for the expression of hURAT1, a transfection mixture solution (Fugene6 18 μl:hURAT1 DNA 6 μg=3:1, in 600 μl OptiMEM medium/dish) was prepared and kept for 15 minutes at room temperature. To each dish, 600 μl of the mixture solution was injected and then incubated in 37[…] cell incubator for 24 hours. The hURAT1-overexpressed HEK293 cell line was trypsinized and cells were harvested. Cells were resuspended in medium and seeded at 6*10^5 cells/well and incubated for 24 hours in 24-well plate which was surface-coated with Poly-D-Lysine.
# [Uric Acid Transport Assay in hURAT1-Overexpressed HEK293 Cell Line]
# For each concentration, the stock sample solution was diluted in PBS (1 μl in 800 μl of PBS) as 1.25 fold concentrated working sample solution to obtain final concentrations of 0.01, 0.1, 1 and 10 μM. The hURAT1-overexpressed cell line was washed with 1 ml of PBS. After washing, PBS was discarded and the sample solution was diluted by 1.25 fold with PBS. Preincubation of cells with 200 μl/well of sample solution made above was conducted for 30 minutes in 37[…] cell incubator. After the incubation, each well was treated with 50 μl of PBS containing 500 μM [^14C]-uric acid (final 100 μM of uric acid/well). Cells were incubated for 2 minutes. The cells were washed twice with 1 ml of PBS.
# To measure the uric acid uptake, each well was treated with 150 μl of M-per buffer (PIERCE) and kept in 37° C. cell incubator for 30 minutes to make cell lysates. 150 μl of cell lysates was transferred into test tube and 4 ml of scintillation cocktail was added. CPM value of [^14C]-uric acid absorbed into cells was detected using liquid scintillation counter. IC50 for the inhibition of uric acid uptake by each test sample was analyzed by computational numerical processing.
# CYP2C9 = CYP2C9 (Homo sapiens, UniProt P11712); assay: biochemical
# [1] = Test for solubility according to pH; assay type: physicochemical; conditions: 37° C. 2 hours; for solubility at 2 h: thermodynamic from solid
# [2] = 37 °C, pH 1.2, simulated gastric fluid, first solution pH about 1.2, 2 mg/mL, read-out: Solubility (μg/mL) pH 1.2
# [3] = 37 °C, pH 6.8, aqueous buffer, second solution pH about 6.8, 2 mg/mL, read-out: Solubility (μg/mL) pH 6.8
# [4] = pH 1.2, simulated gastric fluid, first solution pH about 1.2, 2 mg/mL, read-out: Solubility (μg/mL) pH 1.2
# [5] = pH 6.8, aqueous buffer, second solution pH about 6.8, 2 mg/mL, read-out: Solubility (μg/mL) pH 6.8
# Sequence of CYP2C9 (P11712 whole entry): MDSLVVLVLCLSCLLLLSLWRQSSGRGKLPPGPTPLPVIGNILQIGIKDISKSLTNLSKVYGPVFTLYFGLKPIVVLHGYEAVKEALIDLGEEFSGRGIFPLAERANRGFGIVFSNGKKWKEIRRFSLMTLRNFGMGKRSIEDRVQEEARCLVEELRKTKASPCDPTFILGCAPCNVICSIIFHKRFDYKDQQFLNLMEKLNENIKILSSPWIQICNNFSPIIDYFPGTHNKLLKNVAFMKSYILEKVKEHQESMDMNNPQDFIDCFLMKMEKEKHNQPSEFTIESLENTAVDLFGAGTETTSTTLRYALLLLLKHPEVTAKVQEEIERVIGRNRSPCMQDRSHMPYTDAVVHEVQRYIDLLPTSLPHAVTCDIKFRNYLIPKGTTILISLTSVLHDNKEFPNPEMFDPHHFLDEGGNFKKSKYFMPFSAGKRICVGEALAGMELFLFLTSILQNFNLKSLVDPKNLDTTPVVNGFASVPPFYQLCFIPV
IC50 (hURAT1),IC50 (CYP2C9),Compound,further results
0.136 µM,> 12 µM,"COc1c(Br)cc(C(=O)N2CCOc3ccncc32)cc1Br [Compound 2, (3,5-dibromo-4-methoxy-phenyl)-(2,3-dihydro-pyrido[4,3-b][1,4]oxazin-4-yl)-methanone]",
0.175 µM,,"COc1c(Br)cc(C(=O)N2CCOc3cnccc32)cc1Br [Compound 5, (3,5-dibromo-4-methoxy-phenyl)-(2,3-dihydro-pyrido[3,4-b][1,4]oxazin-1-yl)-methanone]",
0.0565 µM,3.05 µM,"O=C(c1cc(Br)c(O)c(Br)c1)N1CCOc2cnccc21 [Compound 6, (3,5-dibromo-4-hydroxy-phenyl)-(2,3-dihydro-pyrido[3,4-b][1,4]oxazin-1-yl)-methanone]",
0.02 µM,> 20 µM,"O=C(c1cc(Br)c(O)c(Br)c1)N1CCOc2ncc(C3CC3)cc21 [Compound 9, (3,5-dibromo-4-hydroxy-phenyl)-(7-cyclopropyl-2,3-dihydro-pyrido[2,3-b][1,4]oxazin-1-yl)-methanone]",
0.334 µM,> 60 µM,"O=C(c1ccc(O)c(Cl)c1)N1CCOc2ccncc21 [Compound 10, (3-chloro-4-hydroxy-phenyl)-(2,3-dihydro-pyrido[4,3-b][1,4]oxazin-4-yl)-methanone bromic acid salt]",
0.175 µM,> 60 µM,"O=C(c1ccc(O)c(Br)c1)N1CCOc2ccncc21 [Compound 11, (3-bromo-4-hydroxy-phenyl)-(2,3-dihydro-pyrido[4,3-b][1,4]oxazin-4-yl)-methanone bromic acid salt]",
0.93 µM,3.5 µM,"O=C(c1ccc(O)c(Br)c1)N1CCOc2cnccc21 [Compound 16, (3-bromo-4-hydroxy-phenyl)-(2,3-dihydro-pyrido[3,4-b][1,4]oxazin-1-yl)-methanone bromic acid salt]",
,9.7 µM,"O=C(c1ccc(O)c(Cl)c1)N1CCOc2cnccc21 [Compound 18, (3-chloro-4-hydroxy-phenyl)-(2,3-dihydro-pyrido[3,4-b][1,4]oxazin-1-yl)-methanone bromic acid salt]",
0.269 µM,6.8 µM,"O=C(c1ccc(O)c(C(F)(F)F)c1)N1CCOc2cnccc21 [Compound 19, (2,3-dihydro-pyrido[3,4-b][1,4]oxazin-1-yl)-(4-hydroxy-3-trifluoromethyl-phenyl)-methanone]",
0.034 µM,5.2 µM,"O=C(c1cc(Br)c(O)c(Br)c1)N1CCOc2ncc(-c3ccccc3)cc21 [Compound 20, (3,5-dibromo-4-hydroxy-phenyl)-(7-phenyl-2,3-dihydro-pyrido[2,3-b][1,4]oxazin-1-yl)-methanone]",
0.954 µM,1.11 µM,"O=S(=O)(c1cc(Cl)c(O)c(Cl)c1)N1CCOc2ccncc21 [Compound 21, 2,6-dichloro-4-(2,3-dihydro-pyrido[4,3-b][1,4]oxazin-4-sulfonyl)-phenol]",
,> 20 µM,"O=C(c1cc(Cl)nc(Cl)c1)N1CCOc2ccncc21 [Compound 31, (2,6-dichloro-pyridin-4-yl)-(2,3-dihydro-pyrido[4,3-b][1,4]oxazin-4-yl)-methanone]","solubility at 2 h [1, 2]: 1850 µg/mL; solubility at 2 h [1, 3]: 199 µg/mL"
,> 20 µM,"O=C(c1ccc(O)nc1)N1CCOc2ccncc21 [Compound 32, (2,3-dihydro-pyrido[4,3-b][1,4]oxazin-4-yl)-(6-hydroxy-pyridin-3-yl)-methanone]","solubility at 2 h [1, 2]: 1960 µg/mL; solubility at 2 h [1, 3]: 1470 µg/mL"
,,"Cl.O=C(c1cc(Br)c(O)c(Br)c1)N1CCOc2ccncc21 [Compound 33, (3,5-dibromo-4-hydroxy-phenyl)-(2,3-dihydro-pyrido[4,3-b][1,4]oxazin-4-yl)-methanone hydrochloric acid salt]","solubility at 2 h [1, 4]: 1580 µg/mL; solubility at 2 h [1, 5]: 810 µg/mL"
,19.6 µM,"O=C(c1ccc(O)c(Cl)c1)N1CCOc2cnccc21 [Compound 34, (3-chloro-4-hydroxy-phenyl)-(2,3-dihydro-pyrido[3,4-b][1,4]oxazin-1-yl)-methanone]",
,> 20 µM,"O=S(=O)(c1ccc(O)cc1)N1CCOc2ccncc21 [Compound 35-1, 4-(2,3-dihydro-pyrido[4,3-b][1,4]oxazin-4-sulfonyl)-phenol]",
,15.1 µM,"O=C(c1ccc(O)c(Br)c1)N1CCOc2cnccc21 [Compound 40, (3-bromo-4-hydroxy-phenyl)-(2,3-dihydro-pyrido[3,4-b][1,4]oxazin-1-yl)-methanone]","solubility at 2 h [1, 2]: 1320 µg/mL; solubility at 2 h [1, 3]: 473 µg/mL"
,> 20 µM,"COc1cc(C(=O)N2CCOc3ccncc32)on1 [Compound 43, (2,3-dihydro-pyrido[4,3-b][1,4]oxazin-4-yl)-(3-methoxy-isoxazol-5-yl)-methanone]","solubility at 2 h [1, 2]: 1260 µg/mL; solubility at 2 h [1, 3]: 1010 µg/mL"
,> 20 µM,"O=C(c1cc(O)no1)N1CCOc2ccncc21 [Compound 44, (2,3-dihydro-pyrido[4,3-b][1,4]oxazin-4-yl)-(3-hydroxy-isoxazol-5-yl)-methanone]","solubility at 2 h [1, 2]: 1960 µg/mL; solubility at 2 h [1, 3]: 2100 µg/mL"
,> 6 µM,"O=C(CN1CCOc2ccncc21)c1cc(Br)c(O)c(Br)c1 [Compound 54, 1-(3,5-dibromo-4-hydroxy-phenyl)-2-(2,3-dihydro-pyrido[4,3-b][1,4]oxazin-4-yl)-ethanone]",
,> 20 µM,"COc1c(Br)cc(C(=O)N2C(=O)COc3ccncc32)cc1Br [Compound 57, 4-(3,5-dibromo-4-methoxy-benzoyl)-4H-pyrido[4,3-b][1,4]oxazin-3-one]",
,> 20 µM,"O=C(c1cnc(O)nc1O)N1CCOc2ccncc21 [Compound 59, (2,3-dihydro-pyrido[4,3-b][1,4]oxazin-4-yl)-(2,4-dihydroxy-pyrimidin-5-yl)-methanone]","solubility at 2 h [1, 2]: 2240 µg/mL; solubility at 2 h [1, 3]: 676 µg/mL"
,> 20 µM,"O=C(c1cc(O)nc(O)n1)N1CCOc2ccncc21 [Compound 60, (2,3-dihydro-pyrido[4,3-b][1,4]oxazin-4-yl)-(2,6-dihydroxy-pyrimidin-4-yl)-methanone]","solubility at 2 h [1, 2]: 2130 µg/mL; solubility at 2 h [1, 3]: 600 µg/mL"
0.0078 µM,,"CC(=O)c1ccc(-c2cnc3c(c2)N(C(=O)c2cc(Br)c(O)c(Br)c2)CCO3)cc1 [Compound 67, 1-{4-[1-(3,5-dibromo-4-hydroxy-benzoyl)-2,3-dihydro-1H-pyrido[2,3-b][1,4]oxazin-7-yl]-phenyl}-ethanone]",
,,O=C(c1cc(Br)c([O-])c(Br)c1)N1CCOc2ccncc21.[K+] [Compound 73],"solubility at 2 h [1, 4]: 1150 µg/mL; solubility at 2 h [1, 5]: 565 µg/mL"
,11.6 µM,"O=C1CCCN1c1cnc2c(c1)N(C(=O)c1cc(Br)c(O)c(Br)c1)CCO2 [Compound 75, 1-[1-(3,5-dibromo-4-hydroxy-benzoyl)-2,3-dihydro-1H-pyrido[2,3-b][1,4]oxazin-7-yl]-pyrrolidin-2-one]",

Compound,IC50 (hURAT1),IC50 (CYP2C9),further results
"O=C(c1cc(Br)c(O)c(Br)c1)N1CCOc2ccncc21 [Compound 71, (3,5-dibromo-4-hydroxy-phenyl)-(2,3-dihydro-pyrido[4,3-b][1,4]oxazin-4-yl)-methanone sulfuric acid salt]",,> 20 µM,"solubility at 2 h [1, 2]: 2140 µg/mL; Solubility (μg/mL) pH 6.8 ([1]; second solution pH about 6.8, 2 mg/mL): 344.7 μg/mL"
